Assay results taken from ChEMBL document CHEMBL1156829 (Proc Natl Acad Sci U S A, 2008).

Assays:
Plasmodium falciparum [1] = test: NOVARTIS: Inhibition of Plasmodium falciparum 3D7 (drug-susceptible) proliferation in erythrocyte-based infection assay; assay type: functional, organism-based; settings: Plasmodium falciparum, 3D7
Plasmodium falciparum [2] = test: NOVARTIS: Inhibition of Plasmodium falciparum W2 (drug-resistant) proliferation in erythrocyte-based infection assay; assay type: functional, organism-based
[3] = NOVARTIS: Cytotoxicity against human hepatocellular carcinoma cell line (Huh7); assay type: toxicity, cell-based, Huh-7; settings: Huh7 cells (hepatocellular carcinoma cell line)
[4] = Plasmodium falciparum, W2, read-out: EC50

Compound: CCN(CC)CCCNC(=S)N(CCN(C)C)Cc1cc2cc(C)cc(C)c2[nH]c1=O
- EC50 (Plasmodium falciparum [1]): 2.42 µM
- EC50 (Plasmodium falciparum [2]; [4]): 2 µM
- CC50 [3]: > 100 µM

Compound: CCc1noc(C)c1C(=O)NCCN1Cc2ccccc2OC(c2ccsc2)C1 (stereo not drawn)
- EC50 (Plasmodium falciparum [1]): 0.827 µM
- EC50 (Plasmodium falciparum [2]; [4]): 0.615 µM
- CC50 [3]: > 100 µM

Compound: CCOC(=O)NN=C1c2ccccc2-c2nc3nonc3nc21
- EC50 (Plasmodium falciparum [1]): 1.45 µM
- EC50 (Plasmodium falciparum [2]; [4]): 1.18 µM
- CC50 [3]: > 10 µM

Compound: CCN(CC)CCNc1ccc(Nc2ccnc3cc4ccccc4cc23)cc1
- EC50 (Plasmodium falciparum [1]): 0.0282 µM
- EC50 (Plasmodium falciparum [2]; [4]): 0.0417 µM
- CC50 [3]: 2.36 µM

Compound: CCCCCCCC(=O)N1CCN(CCN(Cc2ccc(F)cc2)C(=O)c2c(-c3c(F)cccc3Cl)noc2C)CC1
- EC50 (Plasmodium falciparum [1]): 1.76 µM
- EC50 (Plasmodium falciparum [2]; [4]): 1.67 µM
- CC50 [3]: > 100 µM

Compound: CN(CCCNc1ccnc2cc(Cl)ccc12)C(=O)CCc1ccccc1
- EC50 (Plasmodium falciparum [1]): 0.136 µM
- EC50 (Plasmodium falciparum [2]; [4]): 0.187 µM
- CC50 [3]: > 12.1 µM

Compound: Cc1ccc(C)c(Nc2nc(NCc3ccco3)c3ccccc3n2)c1
- EC50 (Plasmodium falciparum [1]): 0.298 µM
- EC50 (Plasmodium falciparum [2]; [4]): 0.844 µM
- CC50 [3]: 5.94 µM

Compound: Oc1nc(-c2ccccn2)nc(C(F)(F)F)c1Br
- EC50 (Plasmodium falciparum [1]): 0.49 µM
- EC50 (Plasmodium falciparum [2]; [4]): < 0.0256 µM
- CC50 [3]: > 8.27 µM

Compound: Cc1noc(-c2ccc(O)cc2O)c1-c1ccc2c(c1)OCCCO2
- EC50 (Plasmodium falciparum [1]): 0.47 µM
- EC50 (Plasmodium falciparum [2]; [4]): 0.209 µM
- CC50 [3]: > 10 µM

Compound: CCN(CC)CCCNC(=S)N(CCN(CC)CC)Cc1cc2ccc(C)c(C)c2[nH]c1=O
- EC50 (Plasmodium falciparum [1]): 3.28 µM
- EC50 (Plasmodium falciparum [2]; [4]): > 2.61 µM
- CC50 [3]: 51.1 µM

Compound: Cc1cc(C)cc(NC(=O)c2cc(-c3ccc(Cl)cc3)nc3ccccc23)c1
- EC50 (Plasmodium falciparum [1]): > 1.25 µM
- EC50 (Plasmodium falciparum [2]; [4]): > 0.716 µM
- CC50 [3]: > 10 µM

Compound: FC(F)(F)c1cccc(Nc2nc3nonc3nc2Nc2ccc(Br)cc2)c1
- EC50 (Plasmodium falciparum [1]): 7.62 µM
- EC50 (Plasmodium falciparum [2]; [4]): 5.2 µM
- CC50 [3]: 7.13 µM

Compound: CCOc1ccc2nc(C)cc(Nc3ccc(OCc4ccccc4Cl)cc3)c2c1
- EC50 (Plasmodium falciparum [1]): 0.142 µM
- EC50 (Plasmodium falciparum [2]; [4]): 0.357 µM
- CC50 [3]: 5.84 µM

Compound: CCC(C)(C)c1ccc(Oc2ccc(NC(=O)c3ccc([N+](=O)[O-])o3)cc2)cc1
- EC50 (Plasmodium falciparum [1]): 7.67 µM
- EC50 (Plasmodium falciparum [2]; [4]): 6.51 µM
- CC50 [3]: 57.6 µM

Compound: Cc1ccnc(NC(c2ccc(Cl)cc2Cl)c2ccc3cccnc3c2O)c1 (stereo not drawn)
- EC50 (Plasmodium falciparum [1]): 0.296 µM
- EC50 (Plasmodium falciparum [2]; [4]): 0.12 µM
- CC50 [3]: 60.1 µM

Compound: CCCCNc1c2c(c(C#N)c3nc4ccccc4n13)CCC2
- EC50 (Plasmodium falciparum [1]): 0.113 µM
- EC50 (Plasmodium falciparum [2]; [4]): 0.367 µM
- CC50 [3]: > 100 µM

Compound: CCOC(=O)c1cnc2c(OC)cccc2c1Nc1ccc(OC)c(OC)c1
- EC50 (Plasmodium falciparum [1]): 0.827 µM
- EC50 (Plasmodium falciparum [2]; [4]): 0.493 µM
- CC50 [3]: > 10 µM

Compound: O=C1/C(=C\c2ccccc2)SC(=Nc2ccccc2)N1C1CCCCC1
- EC50 (Plasmodium falciparum [1]): 0.348 µM
- EC50 (Plasmodium falciparum [2]; [4]): 0.545 µM
- CC50 [3]: > 100 µM

Compound: CC(=O)Nc1cc(C(F)(F)F)cc(C(F)(F)F)c1
- EC50 (Plasmodium falciparum [1]): 1.31 µM
- EC50 (Plasmodium falciparum [2]; [4]): 0.711 µM
- CC50 [3]: > 10 µM

Compound: CCOC(=O)c1c(NC(=O)C(C)Sc2ncnc3c2oc2ccccc23)sc2c1CCC2 (stereo not drawn)
- EC50 (Plasmodium falciparum [1]): > 8.81 µM
- EC50 (Plasmodium falciparum [2]; [4]): 2.9 µM
- CC50 [3]: > 100 µM

Compound: O=C(O)c1cccc(N2N=C(c3ccccc3)CC2=O)c1
- EC50 (Plasmodium falciparum [1]): > 12.5 µM
- EC50 (Plasmodium falciparum [2]; [4]): > 9.63 µM
- CC50 [3]: > 100 µM

Compound: COc1cccc(C(Nc2cc(C)ccn2)c2ccc3cccnc3c2O)c1 (stereo not drawn)
- EC50 (Plasmodium falciparum [1]): 1.11 µM
- EC50 (Plasmodium falciparum [2]; [4]): 0.562 µM
- CC50 [3]: > 93.5 µM

Compound: CCCCCN(C(=O)c1cccc(F)c1)C(CC)c1nc2ccccc2c(=O)n1-c1ccc(Cl)cc1C (stereo not drawn)
- EC50 (Plasmodium falciparum [1]): 1.46 µM
- EC50 (Plasmodium falciparum [2]; [4]): 0.48 µM
- CC50 [3]: > 10 µM

Compound: CSc1oc(-c2ccccc2)nc1C(N)=O
- EC50 (Plasmodium falciparum [1]): > 1.2 µM
- EC50 (Plasmodium falciparum [2]; [4]): > 0.925 µM
- CC50 [3]: > 10 µM

Compound: C/C(Cl)=C/C[N+]1(CC#Cc2cccc3ccccc23)CCOCC1
- EC50 (Plasmodium falciparum [1]): 0.672 µM
- EC50 (Plasmodium falciparum [2]; [4]): 0.449 µM
- CC50 [3]: > 10 µM

Compound: COc1ccc(C2CC(=O)C3=C(C2)NC(=O)CC3c2ccc(C(F)(F)F)cc2)cc1OC (stereo not drawn)
- EC50 (Plasmodium falciparum [1]): 0.182 µM
- EC50 (Plasmodium falciparum [2]; [4]): 0.123 µM
- CC50 [3]: > 100 µM

Compound: CNC1CC2OC(C)(C1OC)n1c3ccccc3c3c4c(c5c6ccccc6n2c5c31)C(=O)NC4O (stereo not drawn)
- EC50 (Plasmodium falciparum [1]): 0.19 µM
- EC50 (Plasmodium falciparum [2]; [4]): > 0.195 µM

Compound: OCc1nc2ccccc2n1CCOc1ccccc1
- EC50 (Plasmodium falciparum [1]): > 1.25 µM
- EC50 (Plasmodium falciparum [2]; [4]): 0.0233 µM
- CC50 [3]: > 10 µM

Compound: C=CC1(O)CN2CCC1CC2[C@@H](O)c1ccnc2ccc(OC)cc12 (stereo partly drawn)
- EC50 (Plasmodium falciparum [1]): 0.105 µM
- EC50 (Plasmodium falciparum [2]; [4]): 0.264 µM
- CC50 [3]: > 10 µM

Compound: COc1cc(Nc2cncc(-c3ccc(C(N)=O)cc3)n2)cc(OC)c1OC
- EC50 (Plasmodium falciparum [1]): 0.0295 µM
- EC50 (Plasmodium falciparum [2]; [4]): 0.0501 µM
- CC50 [3]: 25.3 µM

Compound: Cc1noc(-c2ccc(O)cc2O)c1-c1ccc2c(c1)OCCO2
- EC50 (Plasmodium falciparum [1]): 0.248 µM
- EC50 (Plasmodium falciparum [2]; [4]): 0.204 µM
- CC50 [3]: 15.2 µM

Compound: CC1CCCCN1CCCNc1ncc(C(=O)NCCCN2CCCC2=O)c(NCC2CCCCC2)n1 (stereo not drawn)
- EC50 (Plasmodium falciparum [1]): 0.85 µM
- EC50 (Plasmodium falciparum [2]; [4]): > 1.25 µM
- CC50 [3]: > 10 µM

Compound: COc1ccccc1N1CCN(c2ccc(NC(=O)c3ccc(Br)cc3)cc2C(=O)NCCCN(C)C)CC1
- EC50 (Plasmodium falciparum [1]): > 1.25 µM
- EC50 (Plasmodium falciparum [2]; [4]): 0.117 µM
- CC50 [3]: 1.34 µM

Compound: O=C1NCCN1CCNS(=O)(=O)c1cc(C(F)(F)F)cc(C(F)(F)F)c1
- EC50 (Plasmodium falciparum [1]): 1.2 µM
- EC50 (Plasmodium falciparum [2]; [4]): 0.786 µM
- CC50 [3]: > 10 µM

Compound: COc1ccc(C2C(C(=O)Nc3ccc(OC)c(OC)c3)CCC(=O)N2c2ccc(OC)cc2)cc1 (stereo not drawn)
- EC50 (Plasmodium falciparum [1]): > 1.36 µM
- EC50 (Plasmodium falciparum [2]; [4]): 2.27 µM
- CC50 [3]: > 10 µM

Compound: COc1ccccc1C(c1nnnn1Cc1ccc(F)cc1)N1CCN(C)CC1 (stereo not drawn)
- EC50 (Plasmodium falciparum [1]): 11.9 µM
- EC50 (Plasmodium falciparum [2]; [4]): 0.97 µM
- CC50 [3]: > 100 µM

Compound: COC(=O)C1=C(C)NC2=C(C(=O)CC(c3ccc(OC)c(OC)c3)C2)C1c1ccc(Cl)cc1Cl (stereo not drawn)
- EC50 (Plasmodium falciparum [1]): 0.169 µM
- EC50 (Plasmodium falciparum [2]; [4]): 0.0143 µM
- CC50 [3]: > 100 µM

Compound: COCCN(C(C)C(=O)NC(CN1CCCC1)c1ccccc1)S(=O)(=O)c1c(C)noc1C (stereo not drawn)
- EC50 (Plasmodium falciparum [1]): 0.964 µM
- EC50 (Plasmodium falciparum [2]; [4]): 0.406 µM
- CC50 [3]: > 11.9 µM

Compound: CCCN(CC(=O)Nc1cc(C(C)(C)C)nn1-c1cccc(C)c1C)C(=O)C(C)(C)C
- EC50 (Plasmodium falciparum [1]): > 1.25 µM
- EC50 (Plasmodium falciparum [2]; [4]): > 0.763 µM
- CC50 [3]: > 10 µM

Compound: COc1ccc(CNCCN2CCN(c3ccccc3)C[C@@H]2Cc2ccc(O)cc2)cc1
- EC50 (Plasmodium falciparum [1]): 0.0521 µM
- EC50 (Plasmodium falciparum [2]; [4]): 0.0549 µM
- CC50 [3]: > 10 µM

Compound: CCCCSc1ncnc2c1c(-c1ccccc1)cn2-c1cccc(F)c1
- EC50 (Plasmodium falciparum [1]): > 1.25 µM
- EC50 (Plasmodium falciparum [2]; [4]): > 0.974 µM
- CC50 [3]: > 10 µM

Compound: NNC(=O)CNC(c1ccccc1)c1cc(Br)ccc1NC(=O)c1ccccc1Br (stereo not drawn)
- EC50 (Plasmodium falciparum [1]): 0.342 µM
- EC50 (Plasmodium falciparum [2]; [4]): 0.453 µM
- CC50 [3]: > 100 µM

Compound: CC(C)CNc1nc(NCCC2CCCN2C)ncc1C(=O)NCc1ccccc1 (stereo not drawn)
- EC50 (Plasmodium falciparum [1]): 0.775 µM
- EC50 (Plasmodium falciparum [2]; [4]): > 1.25 µM
- CC50 [3]: > 10 µM

Compound: CN(CCCNc1ccnc2cc(Cl)ccc12)C(=O)CC(C)(C)C
- EC50 (Plasmodium falciparum [1]): 0.236 µM
- EC50 (Plasmodium falciparum [2]; [4]): 0.173 µM
- CC50 [3]: > 10 µM

Compound: CCC(C)(C)n1nnnc1C(c1cc2cc(C)cc(C)c2[nH]c1=O)N1CCN(c2ccc(O)cc2)CC1 (stereo not drawn)
- EC50 (Plasmodium falciparum [1]): 2.44 µM
- EC50 (Plasmodium falciparum [2]; [4]): 1.07 µM
- CC50 [3]: > 100 µM

Compound: CCOC(=O)C[n+]1cc(CC)sc1N
- EC50 (Plasmodium falciparum [1]): > 1.07 µM
- EC50 (Plasmodium falciparum [2]; [4]): > 1.25 µM
- CC50 [3]: > 10 µM

Compound: O=c1c2c([nH]c3cc(Cl)ccc13)CCCC2
- EC50 (Plasmodium falciparum [1]): 0.333 µM
- EC50 (Plasmodium falciparum [2]; [4]): 0.649 µM
- CC50 [3]: > 100 µM

Compound: COc1ccc(-n2nc([N+](=O)[O-])c(Nc3ccc([N+](=O)[O-])cc3C)[n+]2[O-])cc1
- EC50 (Plasmodium falciparum [1]): 1.3 µM
- EC50 (Plasmodium falciparum [2]; [4]): 0.32 µM
- CC50 [3]: > 100 µM

Compound: CCc1c(C#N)c(N)nc(SCC(=O)c2ccc(C)cc2)c1C#N
- EC50 (Plasmodium falciparum [1]): 1.2 µM
- EC50 (Plasmodium falciparum [2]): No fit
- CC50 [3]: > 100 µM

Compound: Cc1cccn2c(NCc3ccccc3)c(-c3ccccc3OC(=O)CCCCl)nc12
- EC50 (Plasmodium falciparum [1]): 0.781 µM
- EC50 (Plasmodium falciparum [2]; [4]): 0.253 µM
- CC50 [3]: > 10 µM

Compound: N#Cc1nc(C(=O)N2CCOCC2)oc1N1CCOCC1
- EC50 (Plasmodium falciparum [1]): 0.995 µM
- EC50 (Plasmodium falciparum [2]; [4]): > 1.25 µM
- CC50 [3]: > 10 µM
